The values below come from PubChem BioAssay AID449732 (Southern Research Specialized Biocontainment Screening …, 2010).

Molecules are shown by their SMILES.

For this assay, the system named is RSV titer reduction in cells, log virus titer. Description: antiviral activity against RSV, titer decrease, cell-based, titer reduction, selected compounds (AID 449732). The settings on record: stronger effect = higher value.
For `Cc1ccc(-n2c(SCC(=O)Nc3ncc(Cl)cc3Cl)nc3ccccc32)cc1`, the max log titer decrease was 8.6.

On to `CC(C)(C)C(=O)Nc1sc(-c2ccccc2)cc1C(=O)O`, for which the max log titer decrease was 5.66.

`O=C(Nc1ccc(N2CCCCC2)c(Cl)c1)c1cccnc1`: the max log titer decrease was 9.13.

Consider `O=C(NC(=S)Nc1ccccc1C(=O)O)c1ccc(-c2ccc(Br)cc2)o1`, for which the max log titer decrease is 8.03.

As for `COCCCNC(=O)c1ccc(Cn2c(=O)c3ccccc3n(Cc3ccc(C)cc3)c2=O)cc1`, the max log titer decrease is 8.58.

As for `Cc1ccc(NC(=O)C2CCCN2S(=O)(=O)c2cccc3cccnc23)c(C)c1` (stereo unspecified), the max log titer decrease was 8.58.

Regarding `O=C(NCc1ccco1)c1ccc(Cn2c(=O)c3ccccc3n(Cc3ccc(Cl)cc3)c2=O)cc1`, the max log titer decrease was 8.58.

As to `Cc1ccc(CSCC(=O)Nc2ccccc2C(=O)O)cc1`, the max log titer decrease is 8.03.

`Cc1sc2nc(C3CC3)nc(SCC(=O)N3c4ccccc4CC3C)c2c1C` (stereo unspecified): the max log titer decrease was 9.13.

As to `COc1ccc(C(c2c(NC(=O)c3ccco3)sc(C)c2C)N2CCOCC2)cc1OC` (stereo unspecified), the max log titer decrease is 8.58.

For the compound `c1csc(-c2nn3c(Cn4cnc5ccccc54)nnc3s2)c1`, the max log titer decrease is 5.14.

Turning to `CCOC(=O)c1c(-c2cccc(C)c2)csc1NC(=O)c1c(-c2ccccc2)noc1C`, the max log titer decrease was 8.03.

Regarding `CCOC(=O)c1ccc2[nH]c3c(c2c1)CN(C)CC3`, the max log titer decrease was 9.13.

In the case of `Cn1c(C(=O)NCc2ccccc2)cc2oc3ccccc3c21`, the max log titer decrease was 8.58.

Take `CCOC(=O)c1ccc(NC(=S)N2CCSC2c2ccc(Br)cc2)cc1` (stereo unspecified): the max log titer decrease was 8.03.

`CN(C)C(=O)COC(=O)c1ccccc1Nc1ccc(SC(F)F)cc1`: the max log titer decrease is 8.6.

In the case of `CCOc1ccc(CNC(=O)c2cc3oc4ccccc4c3n2C)cc1`, the max log titer decrease is 8.58.

For the compound `O=C(O)C1CC=CCC1C(=O)Nc1ccc(S(=O)(=O)N2CCCc3ccccc32)cc1` (stereo unspecified), the max log titer decrease is 8.58.

`O=C(CCNC(=O)c1ccc(Br)cc1)NC1CCCc2ccccc21` (stereo unspecified): the max log titer decrease is 8.6.

Consider `CCOC(=O)C1=C(NC(=S)NC(=O)c2ccccc2)c2ccccc2CC1C(C)C` (stereo unspecified), for which the max log titer decrease is 9.13.

For `O=C(CCCOc1ccc(Cl)cc1Cl)Nc1ccccc1C(=O)O`, the max log titer decrease is 8.03.

For the compound `O=[N+]([O-])c1ccccc1S(=O)(=O)Nc1cccc(-c2ccc(N3CCCC3)nn2)c1`, the max log titer decrease was 9.13.

`COc1ccc(N(CC(=O)NC2CCCCC2)C(=O)c2ccc(C)s2)c(OC)c1`: the max log titer decrease was 5.13.

With `COC(=O)C1=C(C)N(Cc2ccccc2)C(=O)NC1c1ccccc1` (stereo unspecified), the max log titer decrease was 9.13.

In the case of `COc1cccc(CNC(=O)c2cc3oc4ccccc4c3n2C)c1OC`, the max log titer decrease is 8.58.

As for `CCOc1ccc2nc(NC(=O)C(CCSC)NS(=O)(=O)c3cccs3)sc2c1` (stereo unspecified), the max log titer decrease is 8.58.

`CCc1nc(SCC(=O)N2c3ccccc3CC2C)c2c(C)c(C)sc2n1` (stereo unspecified): the max log titer decrease is 9.13.

In the case of `Cc1ccc2c(c1)cc(C(=O)NCc1ccccc1)n2C`, the max log titer decrease was 8.03.

Take `CCN(c1ccccc1)S(=O)(=O)c1ccc(Cl)c(NC(=O)CSc2n[nH]c(N)n2)c1`: the max log titer decrease was 8.6.

Take `Cc1cccc(NC(=O)CSc2nc3ccccc3nc2N2CCCCC2)c1`: the max log titer decrease was 9.13.

As for `CSc1nnc(Cn2c(=O)sc3ccccc32)n1-c1cccc(Cl)c1`, the max log titer decrease is 5.47.

Consider `Cc1c(NC(=O)COC(=O)c2cc(-c3ccc(-c4ccccc4)cc3)nc3ccccc23)c(=O)n(-c2ccccc2)n1C`, for which the max log titer decrease is 8.6.

As to `C#CCn1c(S(=O)(=O)Cc2ccc(F)cc2)nc(-c2ccccc2)c1-c1ccccc1`, the max log titer decrease was 3.37.

As to `O=C(c1cc2nc(-c3ccccc3)cc(-c3ccccc3)n2n1)N1CCC2(CC1)OCCO2`, the max log titer decrease was 8.03.

Regarding `COc1ccccc1NCC(=O)Nc1cc(S(=O)(=O)N2CCOCC2)ccc1N1CCOCC1`, the max log titer decrease was 4.6.

Regarding `O=S(=O)(c1cccc(-c2csc(-c3ccccc3)n2)c1)N1CCOCC1`, the max log titer decrease was 8.58.

Regarding `O=C(CCNC(=O)c1ccc(Cl)cc1)NC1CCCc2ccccc21` (stereo unspecified), the max log titer decrease was 8.6.

As for `COc1cccc(C(=O)N(Cc2nc(-c3cccc(C)c3)no2)C(C)C)c1OC`, the max log titer decrease was 8.03.

In the case of `COC(=O)c1ccc(NC2c3ncccc3C(=O)N2Cc2cccs2)cc1` (stereo unspecified), the max log titer decrease was 5.08.

Consider `Cc1ccc(OCCn2c(C3CC(=O)N(Cc4ccccc4)C3)nc3ccccc32)cc1` (stereo unspecified), for which the max log titer decrease was 8.6.

Regarding `c1ccc(-c2nn3c(Cn4cnc5ccccc54)nnc3s2)cc1`, the max log titer decrease was 8.58.

Turning to `Cc1nc2ccccc2nc1Nc1cccc(Cl)c1`, the max log titer decrease is 8.03.

Turning to `COc1ccccc1CNC(=O)C1CCN(S(=O)(=O)c2cccc3nonc23)CC1`, the max log titer decrease was 8.58.

For the compound `CSc1ncccc1C(=O)Nc1nc(C(C)(C)C)cs1`, the max log titer decrease was 5.6.

Turning to `c1ccc(N2CCN(Cc3nc4ccccc4[nH]3)CC2)nc1`, the max log titer decrease was 4.6.

On to `CCCC(c1nnnn1CC(=O)OCC)N(Cc1cc2c(C)cc(C)cc2[nH]c1=O)C1CCCC1` (stereo unspecified), for which the max log titer decrease was 9.13.

Consider `COc1ccc(C(=O)Nc2nc3c(s2)CCCC3)cc1S(=O)(=O)N1CCCc2ccccc21`, for which the max log titer decrease is 8.6.

Consider `CC1Cc2ccccc2N1S(=O)(=O)c1cccc(C(=O)N2CCN(c3ncccn3)CC2)c1` (stereo unspecified), for which the max log titer decrease was 8.6.

As for `Cc1cccc(-n2c(SCC(=O)Nc3ncc(Cl)cc3Cl)nc3ccccc32)c1`, the max log titer decrease was 8.6.

As to `Cc1ccc(-c2nc3cccnc3s2)cc1NS(=O)(=O)c1cccs1`, the max log titer decrease is 9.13.

Regarding `O=C(O)c1cccnc1Nc1ccc(Cl)cc1`, the max log titer decrease is 9.13.
